These results are taken from patent publication US8198311B2, “Modulators of glucocorticoid receptor, AP-1, and/or NF-κB activity and use thereof” (Bristol-Myers Squibb Company, priority 2006, dated 2012).

The Ki is a dissociation constant, usually derived from enzyme kinetics or from competition with a known ligand. As usually defined, the EC50 is the concentration at which the effect is half-maximal.

Assay [1] deals with T1, human full-length glucocorticoid receptor (Homo sapiens, UniProt P04150).
T1 construct: recombinantly expressed human full-length glucocorticoid receptor; purchased PanVera Co., Madison, Wis; P2816
T1 sequence (P04150 1-777): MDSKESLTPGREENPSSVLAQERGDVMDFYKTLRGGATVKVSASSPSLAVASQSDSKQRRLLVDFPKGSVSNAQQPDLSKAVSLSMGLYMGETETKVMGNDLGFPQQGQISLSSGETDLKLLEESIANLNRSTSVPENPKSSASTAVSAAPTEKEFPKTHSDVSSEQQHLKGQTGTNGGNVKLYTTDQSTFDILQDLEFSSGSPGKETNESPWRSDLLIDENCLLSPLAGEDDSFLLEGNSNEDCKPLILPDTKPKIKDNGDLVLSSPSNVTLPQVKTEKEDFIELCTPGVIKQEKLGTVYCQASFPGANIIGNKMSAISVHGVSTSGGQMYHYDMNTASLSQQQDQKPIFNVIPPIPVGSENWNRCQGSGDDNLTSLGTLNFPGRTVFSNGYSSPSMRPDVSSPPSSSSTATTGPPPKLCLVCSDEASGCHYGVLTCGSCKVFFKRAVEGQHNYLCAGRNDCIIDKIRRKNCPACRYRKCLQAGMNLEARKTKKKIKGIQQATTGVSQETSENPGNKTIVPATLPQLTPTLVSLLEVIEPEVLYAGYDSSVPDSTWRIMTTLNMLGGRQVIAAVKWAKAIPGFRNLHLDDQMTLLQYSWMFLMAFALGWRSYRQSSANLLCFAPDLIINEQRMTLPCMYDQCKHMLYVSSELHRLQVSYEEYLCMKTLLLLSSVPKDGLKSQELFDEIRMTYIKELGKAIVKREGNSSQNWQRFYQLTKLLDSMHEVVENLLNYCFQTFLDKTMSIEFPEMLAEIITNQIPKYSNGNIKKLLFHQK
Description: Glucocorticoid Receptor Binding Assay (II), fluorescence polarization competitor kit (Fluormone GS1). Conditions: cell lysate with recombinant human full-length GR. How it is done:
In order to measure the binding of compounds on the glucocorticoid receptor a commercially available kit was used (Glucocorticoid receptor competitor assay kit, PanVera Co., Madison, Wis., P2816). Briefly, a cell lysate containing recombinantly expressed human full-length glucocorticoid receptor was mixed with a fluorescently labeled glucocorticoid (1 nM Fluormone GS1) in the presence or absence of test compound. After one hour at room temperature, the fluorescence polarization (FP) of the samples were measured. […] Test molecules were analyzed in the concentration range from 2.4 nM to 40 microMolar.
On the technique in general: Fluorescence polarisation rises when a labelled molecule tumbles more slowly, as on binding a larger partner.

Assay [2] addresses T2, human glucocorticoid receptor (Homo sapiens, UniProt P04150).
T2 construct: purified human recombinant full-length glucocorticoid receptor (2 nM); purchased Invitrogen Part # 2893
T2 sequence (P04150 1-777): T1 sequence (P04150 1-777)
Briefly: Glucocorticoid Receptor Binding Assay (I), fluorescence polarization competitor kit (Fluormone GS Red). Conditions: purified human recombinant full-length GR. An outline of the steps: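 Fluorescence polarization competition: full-length recombinant human GR (2 nM) incubated with 1 nM Fluormone GS Red plus test compound (8.5E-05 to 5 μM) for 2 h at room temperature in the dark before FP read-out.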

For assay [3], the system named is AP-1 induced transcriptional activity. Briefly: Cellular Transrepressional Assay (AP-1 luciferase reporter in A549 cells, PMA-activated). In kind it is cell-based. The note with it: Homo sapiens, A549, 7 h, pAP-1-Luc, 10 ng/ml PMA, read-out: AP-1 (EC50, nM) (Cellular Transrepression Assay). The gist of the method: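 A549 cells stably carrying a 7×AP-1-luciferase reporter, stimulated with 10 ng/ml PMA with or without compound (0.1 nM-40 μM) for 7 h. Luciferase luminescence read 10 min after reagent addition; repression is percentage decrease of PMA-alone signal, EC50 by curve fitting.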
On the technique in general: Reporter assays use an easily measured gene product as a stand-in for the process of interest.

For `CC(O)C(C)(C)C(c1ccccc1)c1ccc2c(cnn2-c2ccc(F)cc2)c1` (mixture of isomers) [Example 119, 4-(1-(4-Fluorophenyl)-1H-indazol-5-yl)-3,3-dimethyl-4-phenylbutan-2-ol], the Ki in assay [1] worked out at 26 nM; in assay [2], 53 nM. Besides, in assay [3], the EC50 is > 10000 nM.

With `CC(C)CC(c1ccc2c(cnn2-c2ccc(F)cc2)c1)C(C)(C)CNC(=O)NC(C)(C)CN1CCOCC1` (centres unmarked) [Example 33, 1-(3-(1-(4-fluorophenyl)-1H-indazol-5-yl)-2,2,5-trimethylhexyl)-3-(2-methyl-1-morpholinopropan-2-yl)urea], the Ki in assay [1] is 74 nM. In addition, the EC50 in assay [3] was > 10000 nM.

Turning to `CC(C)CC(c1ccc2c(cnn2-c2ccc(F)cc2)c1)C(C)(C)CNC(=O)CC(F)(F)F` (centres unmarked) [Example 59A, 3,3,3-trifluoro-N-(3-(1-(4-fluorophenyl)-1H-indazol-5-yl)-2,2,5-trimethylhexyl)propanamide], the Ki in assay [1] came to 6.9 nM. Also, in assay [3], the half-maximal effective concentration (EC50) turned out to be 57 nM.

In the case of `CC(C)CC(c1ccc2c(cnn2-c2ccc(F)cc2)c1)C(C)(C)CNC(N)=O` (centres unmarked) [Example 61, 1-(3-(1-(4-fluorophenyl)-1H-indazol-5-yl)-2,2,5-trimethylhexyl)urea], in assay [1], the Ki came to 9.6 nM. Moreover, the EC50 in assay [3] was determined as 371 nM.

With `Cn1ncc2cc([C@H](c3ccccc3)C(C)(C)CNC(=O)CC(F)(F)F)ccc21` [Example 84, (S)—N-(2,2-Dimethyl-3-(1-methyl-1H-indazol-5-yl)-3-phenylpropyl)-3,3,3-trifluoropropanamide], the inhibition constant Ki in assay [1] stood at 115 nM. For the same molecule, the EC50 in assay [3] was > 10000 nM.

As to `Cn1ncc2cc([C@H](c3ccccc3)C(C)(C)CNS(=O)(=O)CC(F)(F)F)ccc21` [Example 85, (S)—N-(2,2-Dimethyl-3-(1-methyl-1H-indazol-5-yl)-3-phenylpropyl)-2,2,2-trifluoroethanesulfonamide], the Ki in assay [1] amounted to 2890 nM. In addition, the EC50 in assay [3] is > 10000 nM.

With `CC(C)n1ncc2cc([C@H](c3ccccc3)C(C)(C)CNC(=O)CC(F)(F)F)ccc21` [Example 86, (S)—N-(2,2-Dimethyl-3-(1-isopropyl-1H-indazol-5-yl)-3-phenylpropyl)-3,3,3-trifluoropropanamide], in assay [1], the Ki came out at 13 nM. Moreover, in assay [3], the half-maximal effective concentration (EC50) was > 10000 nM.

For the molecule `CC(C)n1ncc2cc([C@H](c3ccccc3)C(C)(C)CNS(=O)(=O)CC(F)(F)F)ccc21` [Example 87, (S)—N-(2,2-Dimethyl-3-(1-isopropyl-1H-indazol-5-yl)-3-phenylpropyl)-2,2,2-trifluoroethanesulfonamide], in assay [1], the Ki was determined as 33 nM. For the same molecule, the half-maximal effective concentration (EC50) in assay [3] was > 10000 nM.

Consider `O=C(CC(F)(F)F)NCC1CC1(c1ccccc1)c1ccc2c(cnn2-c2ccc(F)cc2)c1` (centres unmarked) [Example 88, 3,3,3-Trifluoro-N-((2-(1-(4-fluorophenyl)-1H-indazol-5-yl)-2-phenylcyclopropyl)methyl)propanamide], for which the Ki in assay [1] was determined as 86 nM. In addition, the half-maximal effective concentration (EC50) in assay [3] was > 10000 nM.

Take `O=S(=O)(CC(F)(F)F)NCC1CC1(c1ccccc1)c1ccc2c(cnn2-c2ccc(F)cc2)c1` (centres unmarked) [Example 89, 2,2,2-trifluoro-N-((2-(1-(4-fluorophenyl)-1H-indazol-5-yl)-2-phenylcyclopropyl)methyl)ethanesulfonamide]: the inhibitory constant (Ki) in assay [1] is 43 nM. In assay [3], the EC50 was > 10000 nM.

On to `CC(C)(CNc1nncs1)C(c1ccccc1)c1ccc2c(cnn2-c2ccc(F)cc2)c1` (centres unmarked) [Example 109, N-(3-(1-(4-Fluorophenyl)-1H-indazol-5-yl)-2,2-dimethyl-3-phenylpropyl)-1,3,4-thiadiazol-2-amine], for which the Ki in assay [1] worked out at 9.2 nM. Also, the EC50 in assay [3] stood at 43 nM.

Regarding `O=S(=O)(CC(F)(F)F)NCCC(c1ccccc1)c1ccc2c(cnn2-c2ccc(F)cc2)c1` (centres unmarked) [Example 110, 2,2,2-Trifluoro-N-(3-(1-(4-fluorophenyl)-1H-indazol-5-yl)-3-phenylpropyl)ethanesulfonamide], in assay [1], the Ki worked out at 21 nM. Moreover, in assay [3], the half-maximal effective concentration (EC50) was > 10000 nM.

As to `O=C(CC(F)(F)F)NCCC(c1ccccc1)c1ccc2c(cnn2-c2ccc(F)cc2)c1` (centres unmarked) [Example 111, 3,3,3-Trifluoro-N-(3-(1-(4-fluorophenyl)-1H-indazol-5-yl)-3-phenylpropyl)propanamide], the inhibition constant Ki in assay [1] was 12 nM. In addition, the EC50 in assay [3] amounted to 240 nM.

Regarding `O=C(NCCC(c1ccccc1)c1ccc2c(cnn2-c2ccc(F)cc2)c1)C(F)(F)F` (centres unmarked) [Example 112, 2,2,2-Trifluoro-N-(3-(1-(4-fluorophenyl)-1H-indazol-5-yl)-3-phenylpropyl)acetamide], the inhibitory constant (Ki) in assay [1] was determined as 11 nM. For the same molecule, in assay [3], the concentration for a half-maximal effect (EC50) came out at 95 nM.

On to `CC(C)(CNC(=O)C(F)(F)F)C(c1ccccc1)c1ccc2c(cnn2C2CCCCCC2)c1` (centres unmarked) [Example 114, N-(3-(1-Cycloheptyl-1H-indazol-5-yl)-2,2-dimethyl-3-phenylpropyl)-2,2,2-trifluoroacetamide], for which, in assay [1], the inhibition constant Ki stood at 33 nM. In addition, in assay [3], the EC50 is > 10000 nM.

Regarding `CC(=O)C(C)(C)C(c1ccccc1)c1ccc2c(cnn2-c2ccc(F)cc2)c1` (centres unmarked) [Example 120, 4-(1-(4-Fluorophenyl)-1H-indazol-5-yl)-3,3-dimethyl-4-phenylbutan-2-one], in assay [1], the inhibition constant Ki was 21 nM. In addition, in assay [3], the half-maximal effective concentration (EC50) is > 10000 nM.

`CC(C)(C(O)c1ccccc1)C(c1ccccc1)c1ccc2c(cnn2-c2ccc(F)cc2)c1` (centres unmarked) [Example 121, 3-(1-(4-fluorophenyl)-1H-indazol-5-yl)-2,2-dimethyl-1,3-diphenylprop an-1-ol]: in assay [1], the Ki worked out at 69 nM. Moreover, in assay [3], the concentration for a half-maximal effect (EC50) was determined as 3850 nM.

As to `CC(C)(C(O)c1cccs1)C(c1ccccc1)c1ccc2c(cnn2-c2ccc(F)cc2)c1` (centres unmarked) [Example 123, 3-(1-(4-fluorophenyl)-1H-indazol-5-yl)-2,2-dimethyl-3-phenyl-1-(thiophen-2-yl)propan-1-ol], the Ki in assay [1] is 71 nM. The 50% effective concentration (EC50) in assay [3] was > 10000 nM.

As to `CC(C)(C(O)Cc1ccccc1)C(c1ccccc1)c1ccc2c(cnn2-c2ccc(F)cc2)c1` (centres unmarked) [Example 124, 4-(1-(4-fluorophenyl)-1H-indazol-5-yl)-3,3-dimethyl-1,4-diphenylbutan-2-ol], the Ki in assay [1] was 75 nM. Also, the 50% effective concentration (EC50) in assay [3] is > 10000 nM.

Take `CC(C)(C(=O)c1ccccc1)C(c1ccccc1)c1ccc2c(cnn2-c2ccc(F)cc2)c1` (centres unmarked) [Example 125]: the inhibitory constant (Ki) in assay [1] turned out to be 14 nM. Moreover, the half-maximal effective concentration (EC50) in assay [3] was > 10000 nM.

Regarding `CC(C)(C(=O)C1CC1)C(c1ccccc1)c1ccc2c(cnn2-c2ccc(F)cc2)c1` (centres unmarked) [Example 126], the Ki in assay [1] turned out to be 12 nM. For the same molecule, the EC50 in assay [3] was > 10000 nM.

Take `CC(C)(C(=O)c1cccs1)C(c1ccccc1)c1ccc2c(cnn2-c2ccc(F)cc2)c1` (centres unmarked) [Example 127]: the Ki in assay [1] was 7.8 nM. Moreover, in assay [3], the 50% effective concentration (EC50) is 5870 nM.

In the case of `CC(C)(C(c1ccccc1)c1ccc2c(cnn2-c2ccc(F)cc2)c1)C(O)(c1ccccc1)C(F)(F)F` (centres unmarked) [Example 129, 1,1,1-Trifluoro-4-(1-(4-fluorophenyl)-1H-indazol-5-yl)-3,3-dimethyl-2,4-diphenylbutan-2-ol], the Ki in assay [1] stood at 26 nM. Besides, the half-maximal effective concentration (EC50) in assay [3] was determined as 202 nM.

For the molecule `CC(C)(C(c1ccccc1)c1ccc2c(cnn2-c2ccc(F)cc2)c1)C(O)(c1cccs1)C(F)(F)F` (centres unmarked) [Example 130, 1,1,1-Trifluoro-4-(1-(4-fluorophenyl)-1H-indazol-5-yl)-3,3-dimethyl-4-phenyl-2-(thiophen-2-yl)butan-2-ol], the inhibitory constant (Ki) in assay [1] stood at 252 nM. The EC50 in assay [3] was > 10000 nM.

Turning to `CC(C)(C(=O)C(F)(F)F)C(c1ccccc1)c1ccc2c(cnn2-c2ccc(F)cc2)c1` (centres unmarked) [Example 131, 1,1,1-Trifluoro-4-(1-(4-fluorophenyl)-1H-indazol-5-yl)-3,3-dimethyl-4-phenylbutan-2-one], the Ki in assay [1] is 20 nM. In addition, the EC50 in assay [3] is > 10000 nM.

Consider `CC(C)(COC(=O)NCC(F)(F)F)C(c1ccccc1)c1ccc2c(cnn2-c2ccc(F)cc2)c1` (centres unmarked) [Example 132, 3-(1-(4-Fluorophenyl)-1H-indazol-5-yl)-2,2-dimethyl-3-phenylpropyl 2,2,2-trifluoroethylcarbamate], for which the inhibition constant (Ki) in assay [1] stood at 28 nM. Moreover, in assay [3], the concentration for a half-maximal effect (EC50) was > 10000 nM.
